Experimental data reported in PMC5075098, “Preclinical Evaluation of the Stability, Safety, and Efficacy of CD101, a Novel Echinocandin” (Antimicrobial Agents and Chemotherapy, 2016).
Starred links: 1 amine or outer side, 2 acyl side, 3 side chain; linkers in the order of their positions; H or OH if unused. Positions of bridges follow the written chain, without caps; N, C: chain ends. Non-standard residues stand in square brackets, D forms with d. Residues, ends and D or L forms follow the SMILES beside them. *: point of attachment. Orn(4R-OH,5R-OCH2CH2NMe3+) = C[N+](C)(C)CCO[C@@H](N[*:3])[C@H](O)C[C@H](N[*:1])C(=O)[*:2]; pTerphenylCO(4''-OnC5H11) = CCCCCOc1ccc(-c2ccc(-c3ccc(C(=O)*)cc3)cc2)cc1; hTyr(3S-OH,4S-OH) = N[C@H](C(=O)O)[C@H](O)[C@@H](O)c1ccc(O)cc1; Pro(3S-OH,4S-Me) = C[C@H]1CN[C@H](C(=O)O)[C@H]1O; Hyp = O=C(O)[C@@H]1C[C@@H](O)CN1

Legend:
[1] = Plasma protein binding, ultracentrifugation; assay type: in vitro ADME; settings: human, ∼500,000 × g 2.5 h at 37°C, LC-MS/MS, SEM, read-out: % of protein bound (SEM) (converted)
Method: Ultracentrifugation ([15]) was used to compare human plasma protein binding of CD101 and anidulafungin. […] Following ultracentrifugation, the supernatant was transferred to a microtiter plate containing 50 μl plasma for matrix-matching purposes and quenched with 400 μl of cold acetonitrile (ACN) with 0.1% formic acid containing diclofenac as an internal standard. Quenched samples were centrifuged for 5 min at 10°C (e.g., 3,100 rpm [2,000 × g]) to sediment the precipitated proteins, and 50 μl supernatant was transferred to a microtiter plate containing 100 μl of water prior to analysis by LC-MS/MS. The percentage bound was the difference between 100% and the percentage free (the ratio of the concentration in supernatant to the total concentration).

[2] = Plasma protein binding, rapid equilibrium dialysis; assay type: in vitro ADME, Sprague-Dawley rat; settings: rat, pH 7.4, read-out: protein bound (converted)
Method: Rapid equilibrium dialysis (RED) ([16]) was used to determine cross-species protein binding of CD101 in CD-1 mouse, Sprague-Dawley rat, cynomolgus monkey, chimpanzee, and human plasma. […] Dialysis buffer (350 μl of phosphate-buffered saline [PBS], pH 7.4, with 100 mM sodium phosphate) was loaded into the buffer (left) channel of the RED device. The device was agitated gently at 37°C for 4 h. Samples were placed into a new 96-well plate for matrix matching (25 μl of plasma added to the dialysis buffer aliquots or 25 μl of dialysis buffer to the plasma aliquots). […] Following centrifugation, 200 μl of the supernatant was transferred to a clean 96-well plate and evaporated to dryness at 37°C under nitrogen. Samples were reconstituted in 100 μl of 1:1 acetonitrile-water prior to analysis by LC-MS/MS. The percentage bound was calculated as the difference between 100% and the percentage free (the ratio of the concentration in supernatant to the concentration in plasma).

[3] = Inhibition of recombinant CYP450 enzymes; assay type: in vitro ADME; settings: recombinant CYP450 enzymes 1A2, 2B6, 2C8, 2C9, 2C19, 2D6, 3A4
[4] = Reactive metabolite screening (glutathione trapping); assay type: in vitro ADME
Method: Samples were diluted to 10 μg/ml into 50:50 acetonitrile-water with 0.1 formic acid. Samples were analyzed by LC (Agilent 1100) with high-resolution MS (Waters quadrupole time of flight [Q-TOF] Premier mass spectrometer with electrospray interface) with concurrent low- and high-energy scans to obtain full-scan parent and product fragment ions. The analytical column was a Phenomenex Kinetex (2.6-μm C18, 100 by 3.0 mm). Waters MassLynx 4.1 software was used for data analysis.

C. albicans R303 = settings: CLSI broth microdilution, read after 24 h at 35°C, prominent growth inhibition (∼50%)
Method: Enumeration of MIC and MEC assay inoculum viable counts was performed by plating aliquots of the starting assay inoculum on Sabouraud dextrose agar.

CYP2C8 = biological target: T1, CYP2C8 (Homo sapiens, UniProt P10632); assay: CYP450 inhibition in human liver microsomes
T1 sequence (P10632 1-490): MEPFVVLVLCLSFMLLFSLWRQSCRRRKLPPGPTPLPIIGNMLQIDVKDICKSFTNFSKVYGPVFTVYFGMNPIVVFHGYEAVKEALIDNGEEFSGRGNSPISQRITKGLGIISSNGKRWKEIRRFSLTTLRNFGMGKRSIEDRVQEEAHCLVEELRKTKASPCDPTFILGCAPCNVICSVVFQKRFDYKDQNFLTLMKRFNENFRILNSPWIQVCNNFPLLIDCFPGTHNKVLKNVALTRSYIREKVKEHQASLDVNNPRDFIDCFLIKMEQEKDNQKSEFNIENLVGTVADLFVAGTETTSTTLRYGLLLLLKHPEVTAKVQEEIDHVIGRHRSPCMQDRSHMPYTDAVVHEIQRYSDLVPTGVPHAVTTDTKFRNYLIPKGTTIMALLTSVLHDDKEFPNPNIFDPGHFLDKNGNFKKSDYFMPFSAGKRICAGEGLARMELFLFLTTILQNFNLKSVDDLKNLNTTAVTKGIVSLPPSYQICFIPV
Method: (§1) The final DMSO content in the reaction mixture was equal in all solutions used within an assay and was less than 0.2%. […] After incubation for 5 min at 37°C, the reactions were terminated by addition of methanol-containing internal standard (propranolol) for analytical quantification. The quenched samples were incubated at 4°C for 10 min and centrifuged at 4°C for 10 min.

[5] = CYP450 inhibition in human liver microsomes; settings: pH 7.4, IC50, human liver microsomes, 0.03 to 30 μM, 5 min at 37°C, pH 7.4, LC-MS/MS, duplicate
Method: as §1

CCCCCOc1ccc(-c2ccc(-c3ccc(C(=O)N[C@H]4C[C@@H](O)[C@@H](OCC[N+](C)(C)C)NC(=O)[C@@H]5[C@@H](O)[C@@H](C)CN5C(=O)[C@H]([C@@H](C)O)NC(=O)[C@H]([C@H](O)[C@@H](O)c5ccc(O)cc5)NC(=O)[C@@H]5C[C@@H](O)CN5C(=O)[C@H]([C@@H](C)O)NC4=O)cc3)cc2)cc1 [CD101] ({pTerphenylCO(4''-OnC5H11)}-[Orn(4R-OH,5R-OCH2CH2NMe3+)]T[Hyp][hTyr(3S-OH,4S-OH)]T[Pro(3S-OH,4S-Me)]; lactam 1-C)
fraction unbound ([1]; 1 μg/ml): 0.02 | fraction unbound ([1]; 5 μg/ml): 0.017 | fraction unbound [2]: 0.022 | IC50 [3]: > 10 µM | degradation on incubation with and without GSH ([4]; PBS pH 7.4, 37°C, 24 h of incubation (Fig. 3 legend), LC-HRMS): No degradation observed | GSH adduct formation (reactive intermediate) ([4]; PBS pH 7.4, excess GSH, 37°C, LC with high-resolution MS): not found to generate any GSH adduct | MIC (C. albicans R303): 0.12 mg/L | IC50 (CYP2C8): 25.7 µM | IC50 ([5]; midazolam substrate (2.5 μM)): 29 µM | IC50 ([5]; testosterone substrate (50 μM)): > 30 µM
